Source: US8802597B2, “Herbicidal pyrimidines” (E I du Pont de Nemours and Company, priority 2003, dated 2014)

Assays:
Assay in all cases: Test E flooded paddy water application
Assay type in all cases: in vivo
Conditions in all cases: Flood, 21 days, scale 0 to 100 (0 no effect, 100 complete control)
[1] = tested on: barnyardgrass (Echinochloa crus-galli)
Method in brief: (§1)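 Weeds sown in sterilized Tama silt loam (2.6% organic matter), greenhouse 29.5/26.7° C, 16-h photoperiod; at 2.0–2.5-leaf stage pots flooded to 3 cm and compound added to paddy water. Visual rating vs untreated controls after 21 days, 0 (no effect) to 100 (complete control).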

[2] = tested on: bearded (brdd.) sprangletop (Leptochloa fusca ssp. fascicularis)
Method in brief: as §1

[3] = tested on: ducksalad (Heteranthera limosa)
Method in brief: as §1

[4] = tested on: early watergrass (Echinochloa oryzoides)
Method in brief: as §1

[5] = tested on: junglerice (Echinochloa colona)
Method in brief: as §1

[6] = tested on: purple redstem (Ammannia coccinea)
Method in brief: as §1

[7] = tested on: transplanted rice seedlings (Oryza sativa cv. ‘Japonica-M202’)
Method in brief: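 Greenhouse pots of Tama silt loam with weeds and rice at 2.0–2.5-leaf stage, flooded to 3 cm; compounds applied directly into paddy water, depth maintained. Visual rating versus untreated controls after 21 days, 0 (no effect) to 100 (complete control); 29.5/26.7 °C, 16-h photoperiod.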

[8] = tested on: water seeded rice seedlings (Oryza sativa cv. ‘Japonica-M202’)
Method in brief: as §1

Q: Which “Barnyardgrass plant response rating” value ([1]; 32 g ai/ha) does the source give for `COC(=O)c1nc(-c2ccc(C(F)(F)F)cc2)nc(N)c1Cl` [Compound 44] here?
A: 0

Q: And the “Barnyardgrass plant response rating” value ([1]; 64 g ai/ha)?
A: 0

Q: And the “Barnyardgrass plant response rating” value ([1]; 125 g ai/ha)?
A: 0

Q: And the “Barnyardgrass plant response rating” value ([1]; 250 g ai/ha)?
A: 0

Q: What about the “Barnyardgrass plant response rating” value ([1]; 500 g ai/ha) of the same compound?
A: 10

Q: What about the “Sprangletop, Brdd. plant response rating” value ([2]; 32 g ai/ha) of the same compound?
A: 20

Q: What about the “Sprangletop, Brdd. plant response rating” value ([2]; 64 g ai/ha) of the same compound?
A: 30

Q: And the “Sprangletop, Brdd. plant response rating” value ([2]; 125 g ai/ha)?
A: 30

Q: What about the “Sprangletop, Brdd. plant response rating” value ([2]; 250 g ai/ha) of the same compound?
A: 50

Q: What about the “Sprangletop, Brdd. plant response rating” value ([2]; 500 g ai/ha) of the same compound?
A: 95

Q: And the “Ducksalad plant response rating” value ([3]; 32 g ai/ha)?
A: 100

Q: And the “Ducksalad plant response rating” value ([3]; 64 g ai/ha)?
A: 100

Q: What about the “Ducksalad plant response rating” value ([3]; 125 g ai/ha) of the same compound?
A: 100

Q: And the “Ducksalad plant response rating” value ([3]; 250 g ai/ha)?
A: 100

Q: And the “Ducksalad plant response rating” value ([3]; 500 g ai/ha)?
A: 100

Q: And the “Watergrass, Early plant response rating” value ([4]; 32 g ai/ha)?
A: 0

Q: And the “Watergrass, Early plant response rating” value ([4]; 64 g ai/ha)?
A: 0

Q: What about the “Watergrass, Early plant response rating” value ([4]; 125 g ai/ha) of the same compound?
A: 0

Q: What about the “Watergrass, Early plant response rating” value ([4]; 250 g ai/ha) of the same compound?
A: 0

Q: What about the “Watergrass, Early plant response rating” value ([4]; 500 g ai/ha) of the same compound?
A: 0

Q: And the “Junglerice plant response rating” value ([5]; 32 g ai/ha)?
A: 0

Q: What about the “Junglerice plant response rating” value ([5]; 64 g ai/ha) of the same compound?
A: 0

Q: What about the “Junglerice plant response rating” value ([5]; 125 g ai/ha) of the same compound?
A: 0

Q: And the “Junglerice plant response rating” value ([5]; 250 g ai/ha)?
A: 20

Q: And the “Junglerice plant response rating” value ([5]; 500 g ai/ha)?
A: 20

Q: And the “Redstem plant response rating” value ([6]; 32 g ai/ha)?
A: 0

Q: What about the “Redstem plant response rating” value ([6]; 64 g ai/ha) of the same compound?
A: 10

Q: What about the “Redstem plant response rating” value ([6]; 125 g ai/ha) of the same compound?
A: 20

Q: What about the “Redstem plant response rating” value ([6]; 250 g ai/ha) of the same compound?
A: 50

Q: What about the “Redstem plant response rating” value ([6]; 500 g ai/ha) of the same compound?
A: 75

Q: And the “Rice, Transplanted plant response rating” value ([7]; 32 g ai/ha)?
A: 0

Q: What about the “Rice, Transplanted plant response rating” value ([7]; 64 g ai/ha) of the same compound?
A: 0

Q: And the “Rice, Transplanted plant response rating” value ([7]; 125 g ai/ha)?
A: 0

Q: What about the “Rice, Transplanted plant response rating” value ([7]; 250 g ai/ha) of the same compound?
A: 0

Q: What about the “Rice, Transplanted plant response rating” value ([7]; 500 g ai/ha) of the same compound?
A: 0

Q: What about the “Rice, Water Seeded plant response rating” value ([8]; 32 g ai/ha) of the same compound?
A: 0

Q: And the “Rice, Water Seeded plant response rating” value ([8]; 64 g ai/ha)?
A: 0

Q: What about the “Rice, Water Seeded plant response rating” value ([8]; 125 g ai/ha) of the same compound?
A: 0

Q: And the “Rice, Water Seeded plant response rating” value ([8]; 250 g ai/ha)?
A: 0

Q: And the “Rice, Water Seeded plant response rating” value ([8]; 500 g ai/ha)?
A: 20
